{
  "source": "paper PMC10916352",
  "about": "“Safety Evaluation of a Prototypical Diazirine-Based Covalent Crosslinker and Molecular Adhesive” (International Journal of Toxicology, 2023)",
  "key": {"[1]": {"tested_on": "EPISKIN Small Model (human epidermis model)", "test": "In vitro skin irritation test, MTT viability", "format": "cell-based", "description": "(§1) Tests were performed in triplicate. […] Following exposure, samples were rinsed with phosphate buffered saline until no test item remain, dried carefully, and placed in a new 2 mL well with pre-warmed Maintenance Medium to incubate for 42 h. After incubation, cell culture inserts were dried carefully, transferred into a 12-well plate prefilled with 2 mL MTT in phosphate buffered saline (.3 mg/mL), and incubated for 3 h. Tissue samples were then dried, and a biopsy punch was taken. The epidermis was separated from the collagen matrix, and both were extracted with 500 μL isopropanol and stored for 70 h refrigerated. The amount of extracted formazan was measured in duplicate for each sample by the OD570."}, "[2]": {"test": "In vitro skin irritation test, MTT viability", "format": "cell-based, human", "settings": "human; 15 min exposure, 42 h post-incubation, relative to phosphate buffered saline; read-out: Cell Viability (%)", "description": "as §1"}, "isolated bovine cornea": {"tested_on": "isolated bovine cornea", "test": "Bovine Corneal Opacity and Permeability test (BCOP)", "parameters": "key to Mean Opacity Change: mean of final − initial opacity; opacity = (I0/I − 0.9894)/0.0251", "description": "The BCOP Assay was performed to evaluate the eye hazard potential of BondLynx, as measured by its ability to induce opacity and increase permeability in an isolated bovine cornea. The BCOP is an in vitro model that provides short-term maintenance of normal physiological and biological function of the bovine cornea in an isolated system so that eye damage can be assessed by quantitative measurements of changes in corneal opacity and permeability.[45],[46]\nTests were performed using bovine corneas isolated from the eyes of young cattle after slaughter and transported in biological saline under cooled conditions. […] BondLynx was ground with a mortar and pestle and applied directly to the corneas as a solid. Tests were performed in triplicate.\nBovine eyes were checked for unacceptable defects, such as opacity, scratches, pigmentation, and neovascularization upon receipt by removing them from the physiological saline and holding them in the light. Corneas were isolated from acceptable specimens and stored in a petri dish with cMEM (Eagle’s Minimum Essential Medium with 1% v/v L-glutamine and 1% v/v foetal bovine serum) at 32 ± 1°C. Isolated corneas were mounted in a corneal holder with the endothelial side against the O-ring of the posterior half of the holder and the anterior half of the holder tightened on top of the cornea with screws. The compartments of the corneal holder were filled with cMEM and the corneas were incubated for a minimum of 1 h at 32 ± 1°C. The initial corneal opacity was determined by replacing the medium in both compartments with fresh cMEM and using an opacitometer to measure the opacity against a cMEM filled chamber. Only corneas with an initial opacity <7 were used for testing.\nA total of three samples were prepared for each test item by removing the medium from the anterior compartment of the holder and applying 750 μL of positive or negative control, or 306.6-333.6 mg of BondLynx. The corneal holders were positioned so that the test item uniformly covered the cornea within, and the entire assembly was incubated at 32 ± 1°C for 240 ± 10 min. The test item was then removed, and the epithelium was washed at least three times with MEM containing phenol red. Corneas were visually inspected for pH effects and dissimilar opacity patterns before refilling both compartments with fresh cMEM.\nCorneal opacity was measured by the diminution of light (I = luminous flux per area) passing through the cornea. The opacity value was calculated according to the formula: Opacity=I0/I−0.9894/0.0251 where I0 is the empirically determined illuminance through a cornea holder with just windows and medium and I is the measured illuminance through a holder with a cornea. The change in opacity for each individual cornea was calculated by subtracting the initial opacity from the final post-treatment reading, and the corrected opacity was calculated by subtracting the average change in opacity of the negative control corneas (if > 0) from the change in opacity for corneas treated with BondLynx or positive control.\nFollowing the final opacity measurement, permeability of the cornea to Na-fluorescein was evaluated by removing the medium from both corneal holder compartments, then refilling the posterior compartment with fresh cMEM and the anterior compartment with 1 mL of Na-fluorescein in cMEM (5 mg/mL). The corneal holders were positioned so that the test item uniformly covered the cornea within, and the entire assembly was incubated at 32 ± 1°C for 90 ± 5 min. The medium from the posterior compartment was then removed, and a 360 μL aliquot was placed in a 96-well plate to measure the OD490 in triplicate. Any sample with an OD490 that was 1.500 or higher was diluted to bring the OD490 into the acceptable range. The corrected OD490 was calculated by subtracting the average change in OD490 for the negative control (if > 0) from the change in OD490 of either BondLynx or positive control treated cornea."}},
  "note": "Values joined by “and” are separate entries in the source; they are usually repeats but may differ in a detail not shown here. Identical values can stand only once.",
  "data": [
    {"smiles": "FC(F)(F)C1(c2ccc(C(c3ccc(C4(C(F)(F)F)N=N4)cc3)(C(F)(F)F)C(F)(F)F)cc2)N=N1", "note": "[BondLynx, 2,2-bis-[4-[3-(trifluoromethyl)-3H-diazirin-3-yl]phenyl]hexafluoropropane]", "values": [
      {"measurement": "Mean ± SD (OD570 corrected)", "setting": "[1]; 15 min exposure, 42 h post-incubation", "result": "1.019 ± .011"},
      {"measurement": "OD570", "setting": "[1]; 15 min exposure, 42 h post-incubation, tissues A-C, duplicate readings", "result": "1.0621 and 1.0517 and 1.0668 and 1.0420 and 1.0901 and 1.0602"},
      {"measurement": "Skin irritation classification", "setting": "[1]; viability >50%", "result": "non-irritant"},
      {"measurement": "viability at 15 min", "setting": "[2]", "result": 106, "unit": "%"},
      {"measurement": "Opacity", "setting": "isolated bovine cornea; 240 min exposure, individual corneas", "result": "0.9 and 0.7"},
      {"measurement": "Appearance of corneas after treatment", "setting": "isolated bovine cornea; 240 min of treatment", "result": "clear"},
      {"measurement": "UN GHS eye damage classification", "setting": "isolated bovine cornea; IVIS <3: No Category", "result": "does not require classification for eye damage or irritation"},
      {"measurement": "pH effects in the rinsing medium", "setting": "isolated bovine cornea; after 240 min exposure", "result": "No pH effects"},
      {"measurement": "Corrected Opacity Change", "setting": "isolated bovine cornea; individual corneas", "result": "1.6 and 0.9 and 0.7"},
      {"measurement": "Final Opacity", "setting": "isolated bovine cornea; individual corneas, after 240 min treatment", "result": "1.9 and 0.9 and 2.5"},
      {"measurement": "Initial Opacity", "setting": "isolated bovine cornea; individual corneas, before treatment", "result": "0.3 and 0 and 1.8"},
      {"measurement": "Opacity Change", "setting": "isolated bovine cornea; individual corneas, final minus initial", "result": "1.6 and 0.9 and 0.7"},
      {"measurement": "IVIS", "setting": "isolated bovine cornea; individual corneas, opacity + 15 × OD490", "result": "0.9 and 1.0"},
      {"measurement": "Mean IVIS ± SD", "setting": "isolated bovine cornea; three corneas", "result": "1.2 ± 0.4"},
      {"measurement": "Mean Opacity Change", "setting": "isolated bovine cornea; three corneas", "result": 1.1}
    ]}
  ]
}
